# In US20050080113A1, “Medicinal compositions” (priority 2001, published 2005):
row,melting point [°C],SMILES
1,190 to 192,"Cc1cc(-c2sc(-c3ccc(S(C)(=O)=O)cc3)nc2-c2ccc(F)cc2)ccn1 [H 58-5, 4 (4 fluorophenyl)-5 (2-methyl-4 pyridyl)-2 (4 methylsulfonylphenyl)-1,3 thiazole]"
2,188 to 190,"Cc1cccc(-c2nc(NC(=O)Nc3ccccc3)sc2-c2ccnc(NC3CCCC3)c2)c1 [H 53-3, N-[5 (2 cyclopentylamino-4 pyridyl)-4 (3 methylphenyl)-1,3 thiazol-2 yl]-N′-phenylurea]"
3,229 to 231,"Cc1cccc(-c2nc(NC(=O)c3cccnc3)sc2-c2ccnc(F)c2)c1 [H 42-6, N-[5 (2 fluoro-4 pyridyl)-4 (3 methylphenyl)-1,3 thiazol-2 yl]nicotinamide]"
4,99 to 101,"CCc1nc(-c2cccc(C)c2)c(-c2ccnc(NC(=O)c3ccsc3)c2)s1 [L 39-1, N-[4 [2 ethyl-4 (3-methylphenyl)-1,3 thiazol-5 yl]-2 pyridyl]-3-thiophenecarboxamide]"
5,124 to 127,"CCC(=O)Nc1cc(-c2sc(C(C)OC(=O)c3ccccc3)nc2-c2cccc(Cl)c2)ccn1 (stereo not shown) [H 102-6, 1 [4 (3 chlorophenyl)-5-(2 propionylamino-4 pyridyl)-1,3 thiazol-2 yl]ethyl benzoate]"
6,219 to 222,"COc1ccc(-c2nc(NC(=O)c3ccccc3)sc2-c2ccnc(N)c2)cc1 [H 51, N-[5 (2 amino-4 pyridyl)-4-(4 methoxyphenyl)-1,3 thiazol-2 yl]benzamide]"
7,255 to 256,"Cc1cc(C)cc(-c2nc(-c3ccc(S(C)(=O)=O)cc3)sc2-c2cc[n+]([O-])c(C)c2)c1 [H 59, 4 [4 (3,5 dimethylphenyl)-2 (4 methylsulfonylphenyl)-1,3-thiazol-5 yl]-2 methylpyridine N-oxide]"
8,122 to 123,"CC(C)(C)C(=O)Nc1cc(-c2sc(-c3ccc(S(C)(=O)=O)cc3)nc2-c2cccc(Cl)c2)ccn1 [H 58-8, N-[4-[4-(3-chlorophenyl)-2-(4-methylsulfonylphenyl)-1,3-thiazol-5-yl]-2-pyridyl]pivalamide]"
9,121 to 122,"CCCc1cccc(-c2nc(CC)sc2-c2ccnc(NC(C)=O)c2)c1 [H 82-9, N-[4 [2 ethyl-4 (3-propylphenyl)-1,3 thiazol-5 yl]-2 pyridyl]acetamide]"
10,77 to 78,"CCc1nc(-c2cccc(C)c2)c(-c2ccnc(NC(=O)c3cc(Cl)cc(Cl)c3)c2)s1 [L 39-6, 3,5 dichloro-N-[4 [2 ethyl-4 (3 methylphenyl)-1,3 thiazol-5 yl]-2 pyridyl]benzamide]"
11,110 to 113,"CC(=O)Nc1cc(-c2sc(C(C)OC(=O)c3ccccc3)nc2-c2cccc(C)c2)ccn1 (stereo not shown) [H 110, 1 [5 (2 acetylamino-4-pyridyl)-4 (3 methylphenyl)-1,3 thiazol-2 yl]ethyl benzoate]"
12,156 to 157,"CCC(=O)Nc1cc(-c2sc(CC)nc2-c2ccc(F)cc2)ccn1 [H 84-2, N-[4 [2 ethyl-4 (4-fluorophenyl)-1,3 thiazol-5 yl]-2 pyridyl]propionamide]"
13,121 to 123,"CCC(=O)Nc1cc(-c2sc(C(C)=O)nc2-c2cccc(C)c2)ccn1 [H 106, N-[4 [2 acetyl-4 (3 methylphenyl)-1,3 thiazol-5 yl]-2-pyridyl]propionamide]"
14,190 to 191,"CCc1nc(-c2ccc(F)cc2)c(-c2ccnc(NC(C)=O)c2)s1 [H 82-2, N-[4 [2 ethyl-4 (4-fluorophenyl)-1,3 thiazol-5 yl]-2 pyridyl]acetamide]"
15,121 to 122,"CCc1nc(-c2cccc(Cl)c2)c(-c2ccnc(NC(=O)CC3CCCC3)c2)s1 [H 90-1, N-[4 [4 (3 chlorophenyl)-2-ethyl-1,3 thiazol-5 yl]-2 pyridyl]cyclopentylacetamide]"
16,85 to 86,"CCC(=O)Nc1cc(-c2sc(CCSC)nc2-c2cccc(C)c2)ccn1 [H 102-1, N-[4 [4 (3 methylphenyl)-2 [2 (methylthio)ethyl]-1,3 thiazol-5 yl]-2-pyridyl]propionamide]"
17,162 to 163,"CCc1nc(-c2ccccc2)c(-c2ccnc(NC(=O)Cc3ccccc3)c2)s1 [L 68-9, N-[4 (2 ethyl-4 phenyl-1,3-thiazol-5 yl)-2 pyridyl]phenylacetamide]"
18,115 to 116,"CCC(=O)Nc1cc(-c2sc(C(C)O)nc2-c2cccc(C)c2)ccn1 (stereo not shown) [H 104, N-[4 [2 (1 hydroxyethyl)-4 (3 methylphenyl)-1,3 thiazol-5 yl]-2 pyridyl]propionamide]"
19,81 to 82,"CCCCC(=O)Nc1cc(-c2sc(CC)nc2-c2cccc(C)c2)ccn1 [H 87-1, N-[4 [2 ethyl-4 (3-methylphenyl)-1,3 thiazol-5 yl]-2 pyridyl]valeramide]"

# Second part, the molecule before the results:
row,SMILES,melting point [°C]
1,CCc1nc(-c2cccc(Cl)c2)c(-c2ccnc(N[C@@H](C)c3ccccc3)c2)s1.Cl,165 to 166
2,"Cc1cccc(-c2nc(-c3ccc(F)cc3)sc2-c2ccnc(NC(=O)c3ccccc3)c2)c1 [D 16-11, N-[4-[2-(4-fluorophenyl)-4-(3-methylphenyl)-1,3-thiazol-5-yl]-2-pyridyl]benzamide]",126 to 128
3,"CCc1cccc(-c2nc(CC)sc2-c2ccnc(N)c2)c1 [H 20-8, 4 [2 ethyl-4 (3-ethylphenyl)-1,3 thiazol-5 yl]-2 pyridylamine]",128 to 129
4,"Cc1cccc(-c2nc(NC(=O)c3cccnc3)sc2-c2ccnc(C)c2)c1 [H 41, N-[4 (3 methylphenyl)-5 (2-methyl-4 pyridyl)-1,3 thiazol-2 yl]nicotinamide]",175 to 178
5,"Cc1cccc(-c2nc(-c3ccc(S(C)(=O)=O)cc3)sc2-c2ccnc(NCCCc3ccccc3)c2)c1 [D 21-6, N-[4-[4-(3-methylphenyl)-2-(4-methylsulfonylphenyl)-1,3-thiazol-5-yl]-2-pyridyl]-N-(3-phenylpropyl)amine]",167 to 168
6,"COc1ccc(-c2nc(N)sc2-c2ccnc(N)c2)cc1 [H 1, [5 (2 amino-4 pyridyl)-4 (4 methoxyphenyl)-1,3 thiazol-2-yl]amine]",251 to 254
7,"Cc1cc(C)cc(-c2nc(N)sc2-c2cc(C)nc(C)c2)c1 [H 7-7, [4 (3,5 dimethylphenyl)-5-(2,6 dimethyl-4 pyridyl)-1,3 thiazol-2 yl]amine]",256 to 258
8,"CCC(=O)Nc1cc(-c2sc(-c3ccc(SC)cc3)nc2-c2cccc(Cl)c2)ccn1 [H 30-11, N-[4 [4 (3 chlorophenyl)-2 [4 (methylthio)phenyl]-1,3 thiazol-5 yl]-2-pyridyl]propionamide]",187 to 188
9,"Cc1cccc(-c2nc(-c3ccccc3Cl)sc2-c2ccnc(NC(=O)CCc3ccccc3)c2)c1 [D 16-14, N-[4 [2 (2 chlorophenyl)-4 (3 methylphenyl)-1,3 thiazol-5 yl]-2 pyridyl]-3-phenylpropionamide]",156 to 158
10,"CCOC(=O)c1nc(-c2cccc(C)c2)c(-c2ccnc(C)c2)s1 [H 14-12, ethyl [4 (3-methylphenyl)-5 (2 methyl-4 pyridyl)-1,3 thiazol-2-yl]carboxylate]",97 to 98
11,"CCc1nc(-c2cccc(Cl)c2)c(-c2ccnc(N)c2)s1 [H 20-1, 4 [2 ethyl-4 (3-chlorophenyl)-1,3 thiazol-5 yl]-2 pyridylamine]",131 to 132
12,"Cc1cccc(-c2nc(-c3ccc(S(C)(=O)=O)cc3)sc2-c2ccnc(NCC3CCCCC3)c2)c1 [H 37-3, N-cyclohexylmethyl-4 [4-(3 methylphenyl)-2 (4 methylsulfonylphenyl)-1,3 thiazol-5-yl]-2 pyridylamine]",157 to 159
13,"CNc1nc(-c2cccc(C)c2)c(-c2ccnc(NC3CCCCC3)c2)s1 [H 36-2, N-methyl-[5 (2-cyclohexylamino-4 pyridyl)-4 (3 methylphenyl)-1,3 thiazol-2-yl]amine]",211 to 212
14,"Cc1cc(C)cc(-c2nc(N)sc2-c2ccncc2)c1 [23-133, [4 (3,5 dimethylphenyl)-5 (4 pyridyl)-1,3 thiazol-2 yl]amine]",242 to 244
15,CC(=O)Nc1cc(-c2sc(C3CCNCC3)nc2-c2cccc(Cl)c2)ccn1.Cl.Cl,193 to 195
16,"CCCc1nc(-c2cccc(Cl)c2)c(-c2ccnc(NC(=O)CC)c2)s1 [H 30-9, N-[4-[4-(3-chlorophenyl)-2-propyl-1,3-thiazol-5-yl]-2-pyridyl]propionamide]",103 to 104
17,Cc1cccc(-c2nc(NC(=O)NCCCl)sc2-c2ccnc(C)c2)c1,149 to 151
18,"CSc1ccc(-c2nc(-c3cccc(C)c3)c(-c3ccnc(NC(=O)c4ccc5ccccc5c4)c3)s2)cc1 [D 16-18, N-[4 [4 (3 methylphenyl)-2 (4 methylthiophenyl)-1,3 thiazol-5 yl]-2 pyridyl]-2-naphthamide]",184 to 186
19,"Cc1cccc(-c2nc(N3CCN(C)CC3)sc2-c2ccnc(C)c2)c1 [H 14-13, 4 (3 methylphenyl)-2 (4-methylpiperazin-1 yl)-5 (2 methyl-4 pyridyl)-1,3 thiazole]",115 to 116
20,"CC(=O)Nc1nc(-c2cccc(C)c2)c(-c2cc(C)nc(C)c2)s1 [H 40-2, N-[5 (2,6 dimethyl-4-pyridyl)-4 (3 methylphenyl)-1,3 thiazol-2 yl]acetamide]",185 to 187
21,"COc1ccc(-c2nc(C)sc2-c2ccnc(NCc3ccccc3)c2)cc1 [D 19-1, N-benzyl-N-[4 [4 (4 methoxyphenyl)-2 methyl-1,3 thiazol-5 yl]-2 pyridyl]amine]",132 to 133
22,"CCc1nc(-c2cccc(C(F)(F)F)c2)c(-c2ccnc(N)c2)s1 [H 20-4, 4 [2 ethyl-4 [3-(trifluoromethyl)phenyl]-1,3 thiazol-5 yl]-2 pyridylamine]",117 to 118
23,"CCc1nc(-c2cccc(C)c2)c(-c2ccnc(NCC3CCCC3)c2)s1 [H 32, N-(cyclopentylmethyl)-4 [2-ethyl-4 (3 methylphenyl)-1,3 thiazol-5 yl]-2 pyridylamine]",67 to 69
24,"Cc1cc(C)cc(-c2nc(NC(=O)C3CCCC3)sc2-c2ccncc2)c1 [23-198, N-[4 (3,5 dimethylphenyl)-5 (4 pyridyl)-1,3 thiazol-2-yl]cyclopentanecarboxamide]",275 to 278
